Laboratory results from ChEMBL document CHEMBL1833830, “1-[2-(2-Benzoyl- and 2-benzylphenoxy)ethyl]uracils as potent anti-HIV-1 agents” (Bioorg Med Chem, 2011).
pEC50, pKi: −log10 of the molar value. Values after ≈ are worked out from the molar mass of the structure shown. Active and inactive are the calls of the source. No cut-off for these calls is given here.

Legend:
Punta Toro virus = test: Antiviral activity against Punta Toro virus assessed as inhibition of viral replication; type: functional, organism-based
Rift Valley fever virus = test: Antiviral activity against Rift Valley fever virus assessed as inhibition of viral replication; type: functional, organism-based
Human alphaherpesvirus 1 = test: Antiviral activity against HSV1 assessed as inhibition of viral replication; type: functional, organism-based
[1] = tested on: Mammalian orthoreovirus 1; test: Antiviral activity against Reovirus 1 assessed as inhibition of viral replication; type: functional, organism-based
[2] = tested on: Human immunodeficiency virus 1; type: functional, organism-based; conditions: Human immunodeficiency virus 1, 3B, MT4, 96 h
[3] = Cytotoxicity against human MT4 cells after 4 days by MTT assay; type: cell-based
West Nile virus = test: Antiviral activity against West Nile virus assessed as inhibition of viral replication; type: functional, organism-based
Vaccinia virus = test: Antiviral activity against Vaccinia virus assessed as inhibition of viral replication; type: functional, organism-based; conditions: Orthopoxvirus vaccinia
in vitro [4] = conditions: human, MT4 cells
[5] = Inhibition of DNA-dependent DNA polymerase activity of HIV1 reverse transcriptase p66/p66 homodimer using activated DNA and [alpha-32P]dATP after 30 mins by liquid scintillation counting; set-up: species or system Human immunodeficiency virus 1
Coxsackievirus B4 = test: Antiviral activity against Coxsackievirus B4 assessed as inhibition of viral replication; type: functional, organism-based
in vitro [6] = conditions: human, MT4 cells; remark: listed apart in the source
Yellow fever virus = test: Antiviral activity against Yellow fever virus assessed as inhibition of viral replication; type: functional, organism-based
Dengue virus = test: Antiviral activity against Dengue virus assessed as inhibition of viral replication; type: functional, organism-based
[7] = tested on: Human immunodeficiency virus 2; test: Antiviral activity against Human immunodeficiency virus type 2 ROD infected in human MT4 cells assessed as inhibition of virus-induced cytopathic effect after 4 days by MTT assay; type: functional, organism-based; conditions: ISOLATE ROD
[8] = tested on: Vesicular stomatitis virus; test: Antiviral activity against Vesicular stomatitis virus assessed as inhibition of viral replication; type: functional, organism-based
Human respirovirus 3 = test: Antiviral activity against Parainfluenza 3 virus assessed as inhibition of viral replication; type: functional, organism-based
[9] = target: Human immunodeficiency virus type 1 reverse transcriptase (Human immunodeficiency virus 1, UniProt Q72547); test: Inhibition of RNA-dependent DNA polymerase activity of HIV1 reverse transcriptase p66/p51 heterodimer using [8-3H]dGTP as substrate after 30 mins by liquid scintillation counting
Human alphaherpesvirus 2 = test: Antiviral activity against HSV-2 assessed as inhibition of viral replication; type: functional, organism-based
Feline coronavirus = test: Antiviral activity against Feline coronavirus assessed as inhibition of viral replication; type: functional, organism-based
Sindbis virus = test: Antiviral activity against Sindbis virus assessed as inhibition of viral replication; type: functional, organism-based
[10] = tested on: Human immunodeficiency virus 1; test: microbe, parasite or virus in culture; conditions: Human immunodeficiency virus 1, 3B, MT4, 96 h
[11] = tested on: Human immunodeficiency virus 2; test: Antiviral activity against Human immunodeficiency virus type 2 ROD infected in human CEM cells assessed as inhibition of virus-induced giant cell formation after 4 days by microscopic analysis; type: functional, organism-based; conditions: ISOLATE ROD, CCRF-CEM
[12] = tested on: Respiratory syncytial virus; test: Antiviral activity against Respiratory syncytial virus assessed as inhibition of viral replication; type: functional, organism-based
[13] = Solubility of the compound in 10% DMSO after overnight incubation by UV spectrometric analysis; type: physicochemical
[14] = Solubility of the compound in 0.1% DMSO after overnight incubation by UV spectrometric analysis; type: physicochemical

| Structure (SMILES) | Activity (Punta Toro virus) | Activity (Rift Valley fever virus) | Activity (Human alphaherpesvirus 1) | Activity [1] | pEC50 [2] | CC50 at 96 h [3] [nM] | Activity (West Nile virus) | Activity (Vaccinia virus) | selectivity ratio (in vitro [4]) | pKi [5] | Activity (Coxsackievirus B4) | selectivity ratio (in vitro [6]) | Activity (Yellow fever virus) | Activity (Dengue virus) | Activity [7] | Activity [8] | Activity (Human respirovirus 3) | pKi [9] | Activity (Human alphaherpesvirus 2) | Activity (Feline coronavirus) | further results |
| --- | --- | --- | --- | --- | --- | --- | --- | --- | --- | --- | --- | --- | --- | --- | --- | --- | --- | --- | --- | --- | --- |
| O=C(c1ccccc1)c1cc(Cl)ccc1OCCn1ccc(=O)[nH]c1=O | inactive | inactive | inactive | inactive | < 3.47 | > 337000 | inactive | inactive | > 3790 | 6.01 | inactive | 1 | inactive | inactive | inactive | inactive | inactive | 6.19 | inactive | inactive | Activity (Sindbis virus): inactive; pEC50 [10]: 7.05; Activity [11]: inactive; Activity [12]: inactive |
| O=C(c1cc(F)cc(F)c1)c1cc(Cl)ccc1OCCn1ccc(=O)[nH]c1=O | inactive | inactive | inactive | inactive | < 3.51 | > 307000 | inactive | inactive | > 11400 | 6.11 | inactive | 1 | inactive | inactive | inactive | inactive | inactive | 6.44 | inactive | inactive | solubility [13]: 17.6 µM (≈ 7.16 µg/mL); Activity (Sindbis virus): inactive; solubility [14]: 7.3 µM (≈ 2.97 µg/mL); pEC50 [10]: 7.57; Activity [11]: inactive; Activity [12]: inactive |
| O=C(c1cc(Br)cc(Br)c1)c1cc(Cl)ccc1OCCn1ccc(=O)[nH]c1=O | inactive | inactive | inactive | inactive | < 3.63 | > 236000 | inactive | inactive | > 7390 | 5.64 | inactive | 1 | inactive | inactive | inactive | inactive | inactive | 6.33 | inactive | inactive | Activity (Sindbis virus): inactive; pEC50 [10]: 7.49; Activity [11]: inactive; Activity [12]: inactive |
| Cc1cc(C)cc(C(=O)c2cc(C)ccc2OCCn2ccc(=O)[nH]c2=O)c1 | inactive | inactive | inactive | inactive | < 3.75 | 179000 | inactive | inactive | 3080 | 5.62 | inactive | < 1 | inactive | inactive | inactive | inactive | inactive | 5.70 | inactive | inactive | solubility [13]: 58.5 µM (≈ 22.1 µg/mL); Activity (Sindbis virus): inactive; solubility [14]: 28.9 µM (≈ 10.9 µg/mL); pEC50 [10]: 7.24; Activity [11]: inactive; Activity [12]: inactive |
| O=C(c1ccccc1)c1cc(Br)ccc1OCCn1ccc(=O)[nH]c1=O | inactive | inactive | inactive | inactive | < 3.52 | > 301000 | inactive | inactive | > 4630 | 5.70 | inactive | 1 | inactive | inactive | inactive | inactive | inactive | 6.35 | inactive | inactive | Activity (Sindbis virus): inactive; pEC50 [10]: 7.19; Activity [11]: inactive; Activity [12]: inactive |
